Source: ChEMBL document CHEMBL3885861, “Open TG-GATES”

Species on record: Rattus norvegicus
Experiment: Open TG-GATES - Regimen: Single
Assay type: toxicity, organism-based, Sprague-Dawley
Set-up: regimen Single, gender Male, age 6 weeks
Settings: in vivo, iv, 6 mg/kg, route intravenous injection, dose level Low; for APTT / Bas / Eos / Fbg / Hb / Ht / Lym / MCH / MCHC / MCV / Mono / Neu / PT / Plat / RBC / Ret / WBC: tissue Blood; for KIDNEY_L / KIDNEY_R / KIDNEY_TOTAL: tissue Kidney; for LIVER: tissue Liver; for A/G / ALP / ALT / AST / BUN / CRE / Ca / Cl / DBIL / GLC / IP / K / LDH / Na / PL / RALB / TBIL / TC / TG / TP / gamma-GTP: tissue Plasma

Compound: NCCBr [BROMOETHANAMINE]
- TERMINAL_BW (3 h): 221.9 g
- APTT (3 h): 22.5 s
- Bas (3 h): 0%
- Eos (3 h): 0.4%
- Fbg (3 h): 300 mg/dL
- Hb (3 h): 13.3 g/dL
- Ht (3 h): 39.3%
- Lym (3 h): 77.8%
- MCH (3 h): 21.5 pg
- MCHC (3 h): 33.8%
- MCV (3 h): 63.5 fL
- Mono (3 h): 3%
- Neu (3 h): 18%
- PT (3 h): 16 s
- Plat (3 h): 125.4 x10_4/uL
- RBC (3 h): 618.4 x10_4/ul
- Ret (3 h): 6.4%
- WBC (3 h): 83.3 x10_2/uL
- KIDNEY_L (3 h): 1 g
- KIDNEY_R (3 h): 1 g
- KIDNEY_TOTAL (3 h): 2 g
- LIVER (3 h): 10.5 g
- A/G (3 h): 1.2
- ALP (3 h): 1604 IU/L
- ALT (3 h): 44.6 IU/L
- AST (3 h): 78 IU/L
- BUN (3 h): 14.4 mg/dL
- CRE (3 h): 0.2 mg/dL
- Ca (3 h): 10.8 mg/dL
- Cl (3 h): 106.2 meq/L
- DBIL (3 h): 0 mg/dL
- GLC (3 h): 167.8 mg/dL
- IP (3 h): 7.9 mg/dL
- K (3 h): 4.4 meq/L
- LDH (3 h): 187.8 IU/L
- Na (3 h): 142 meq/L
- PL (3 h): 140.8 mg/dL
- RALB (3 h): 3 g/dL
- TBIL (3 h): 0.02 mg/dL
- TC (3 h): 76.8 mg/dL
- TG (3 h): 101 mg/dL
- TP (3 h): 5.4 g/dL
- gamma-GTP (3 h): 2 IU/L
- TERMINAL_BW (6 h): 218.1 g
- APTT (6 h): 23.7 s
- Bas (6 h): 0%
- Eos (6 h): 0.6%
- Fbg (6 h): 311 mg/dL
- Hb (6 h): 13.3 g/dL
- Ht (6 h): 39.1%
- Lym (6 h): 83%
- MCH (6 h): 21.1 pg
- MCHC (6 h): 34.1%
- MCV (6 h): 61.9 fL
- Mono (6 h): 2.6%
- Neu (6 h): 12.6%
- PT (6 h): 16.2 s
- Plat (6 h): 118.5 x10_4/uL
- RBC (6 h): 632.6 x10_4/ul
- Ret (6 h): 6.5%
- WBC (6 h): 95.2 x10_2/uL
- KIDNEY_L (6 h): 1 g
- KIDNEY_R (6 h): 1 g
- KIDNEY_TOTAL (6 h): 2 g
- LIVER (6 h): 9.3 g
- A/G (6 h): 1.1
- ALP (6 h): 1385.2 IU/L
- ALT (6 h): 39 IU/L
- AST (6 h): 71.4 IU/L
- BUN (6 h): 10.6 mg/dL
- CRE (6 h): 0.1 mg/dL
- Ca (6 h): 10.5 mg/dL
- Cl (6 h): 105.8 meq/L
- DBIL (6 h): 0 mg/dL
- GLC (6 h): 178.8 mg/dL
- IP (6 h): 8.9 mg/dL
- K (6 h): 4.4 meq/L
- LDH (6 h): 147 IU/L
- Na (6 h): 140.8 meq/L
- PL (6 h): 128.8 mg/dL
- RALB (6 h): 2.8 g/dL
- TBIL (6 h): 0.02 mg/dL
- TC (6 h): 74.4 mg/dL
- TG (6 h): 49.2 mg/dL
- TP (6 h): 5.4 g/dL
- gamma-GTP (6 h): 2 IU/L
- TERMINAL_BW (9 h): 207.3 g
- APTT (9 h): 22.3 s
- Bas (9 h): 0%
- Eos (9 h): 0.6%
- Fbg (9 h): 297 mg/dL
- Hb (9 h): 13.4 g/dL
- Ht (9 h): 38.5%
- Lym (9 h): 80.4%
- MCH (9 h): 21.4 pg
- MCHC (9 h): 34.7%
- MCV (9 h): 61.8 fL
- Mono (9 h): 2.2%
- Neu (9 h): 16.2%
- PT (9 h): 16.3 s
- Plat (9 h): 110.5 x10_4/uL
- RBC (9 h): 623.6 x10_4/ul
- Ret (9 h): 5.4%
- WBC (9 h): 73.1 x10_2/uL
- KIDNEY_L (9 h): 0.9 g
- KIDNEY_R (9 h): 0.9 g
- KIDNEY_TOTAL (9 h): 1.8 g
- LIVER (9 h): 8 g
- A/G (9 h): 1.2
- ALP (9 h): 1508.8 IU/L
- ALT (9 h): 34 IU/L
- AST (9 h): 70 IU/L
- BUN (9 h): 12.8 mg/dL
- CRE (9 h): 0.2 mg/dL
- Ca (9 h): 10.5 mg/dL
- Cl (9 h): 106.2 meq/L
- DBIL (9 h): 0 mg/dL
- GLC (9 h): 174 mg/dL
- IP (9 h): 9.1 mg/dL
- K (9 h): 4.3 meq/L
- LDH (9 h): 129 IU/L
- Na (9 h): 141.2 meq/L
- PL (9 h): 121.8 mg/dL
- RALB (9 h): 2.9 g/dL
- TBIL (9 h): 0.018 mg/dL
- TC (9 h): 71.6 mg/dL
- TG (9 h): 48.4 mg/dL
- TP (9 h): 5.4 g/dL
- gamma-GTP (9 h): 1.4 IU/L
- TERMINAL_BW (24 h): 221.5 g
- APTT (24 h): 23.6 s
- Bas (24 h): 0%
- Eos (24 h): 0.8%
- Fbg (24 h): 322.8 mg/dL
- Hb (24 h): 14 g/dL
- Ht (24 h): 40.5%
- Lym (24 h): 79.8%
- MCH (24 h): 21 pg
- MCHC (24 h): 34.6%
- MCV (24 h): 60.7 fL
- Mono (24 h): 2.8%
- Neu (24 h): 15.6%
- PT (24 h): 16.4 s
- Plat (24 h): 121.7 x10_4/uL
- RBC (24 h): 666.6 x10_4/ul
- Ret (24 h): 5.5%
- WBC (24 h): 96.1 x10_2/uL
- KIDNEY_L (24 h): 1 g
- KIDNEY_R (24 h): 1.1 g
- KIDNEY_TOTAL (24 h): 2.1 g
- LIVER (24 h): 10.8 g
- A/G (24 h): 1.1
- ALP (24 h): 1490 IU/L
- ALT (24 h): 44.6 IU/L
- AST (24 h): 67.6 IU/L
- BUN (24 h): 18 mg/dL
- CRE (24 h): 0.2 mg/dL
- Ca (24 h): 10.7 mg/dL
- Cl (24 h): 105.8 meq/L
- DBIL (24 h): 0 mg/dL
- GLC (24 h): 183.6 mg/dL
- IP (24 h): 6.8 mg/dL
- K (24 h): 4.6 meq/L
- LDH (24 h): 187.8 IU/L
- Na (24 h): 141.6 meq/L
- PL (24 h): 162.8 mg/dL
- RALB (24 h): 2.9 g/dL
- TBIL (24 h): 0.01 mg/dL
- TC (24 h): 90.8 mg/dL
- TG (24 h): 99.4 mg/dL
- TP (24 h): 5.6 g/dL
- gamma-GTP (24 h): 1.8 IU/L
